In the supplement of paper PMC10307832:

Columns and labels:
Assay in all cases: relative viability (nuclei count vs DMSO), 5 days (fraction); higher = more cells survive
[1] = compound: CC1=C(C(=O)N2C=CSC2=N1)CCN3CCC(=C(C4=CC=CC=C4)C5=CC=C(C=C5)F)CC3 + CC(=O)Nc1cccc(-n2c(=O)n(C3CC3)c(=O)c3c(Nc4ccc(I)cc4F)n(C)c(=O)c(C)c32)c1 [Trametinib] (partner 0.02 µM)
Summary of the method: (§1)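 One day after seeding in 1536-well plates, lung cancer cell lines were dosed by pin tool. Dosing was either single-drug or a fixed anchor-drug dose plus five library-drug doses (not always all listed) in √10 steps. After 5 days, nuclei were stained in one fix-and-stain step and counted on 4× images, and relative viability is the nuclei count of treated wells over that of vehicle wells, given as the median of duplicate plates.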

[2] = compound: CC1=C(C(=O)N2C=CSC2=N1)CCN3CCC(=C(C4=CC=CC=C4)C5=CC=C(C=C5)F)CC3 + CS(=O)(=O)CCNCc1ccc(-c2ccc3ncnc(Nc4ccc(OCc5cccc(F)c5)c(Cl)c4)c3c2)o1 [Lapatinib] (partner 2 µM)
Summary of the method: as §1

[3] = compound: CC1=C(C(=O)N2C=CSC2=N1)CCN3CCC(=C(C4=CC=CC=C4)C5=CC=C(C=C5)F)CC3 + COc1cccc2cc(-c3nc([C@H]4CC[C@H](C(=O)O)CC4)n4ncnc(N)c34)[nH]c12 [OSI-027] (partner 0.5 µM)
Summary of the method: as §1

[4] = compound: CC1=C(C(=O)N2C=CSC2=N1)CCN3CCC(=C(C4=CC=CC=C4)C5=CC=C(C=C5)F)CC3 + C[C@]1(O)C[C@@H](c2nc(-c3ccc4ccc(-c5ccccc5)nc4c3)c3c(N)nccn32)C1 [Linsitinib] (partner 1 µM)
Summary of the method: as §1

Cell Line | relative viability ([1]; first compound 0.08 µM) | relative viability ([1]; first compound 0.253 µM) | relative viability ([1]; first compound 0.8 µM) | relative viability ([1]; first compound 2.53 µM) | relative viability ([1]; first compound 8 µM) | relative viability ([2]; first compound 0.08 µM) | relative viability ([2]; first compound 0.253 µM) | relative viability ([2]; first compound 0.8 µM) | relative viability ([2]; first compound 2.53 µM) | relative viability ([2]; first compound 8 µM) | relative viability ([3]; first compound 0.08 µM) | relative viability ([3]; first compound 0.253 µM) | relative viability ([3]; first compound 0.8 µM) | relative viability ([3]; first compound 2.53 µM) | relative viability ([3]; first compound 8 µM) | relative viability ([4]; first compound 0.08 µM) | relative viability ([4]; first compound 0.253 µM) | relative viability ([4]; first compound 0.8 µM) | relative viability ([4]; first compound 2.53 µM) | relative viability ([4]; first compound 8 µM)
HCC-15 | 0.352 | 0.432 | 0.342 | 0.38 | 0.349 | 0.961 | 0.667 | 0.885 | 1.02 | 0.73 | 0.593 | 0.628 | 0.707 | 0.782 | 0.507 | 0.931 | 0.931 | 0.942 | 1.04 | 0.744
HCC-44 | 1.13 | 1.12 | 1.13 | 1.01 | 1.04 | 1.07 | 0.83 | 1 | 1.07 | 0.787 | 0.69 | 0.548 | – | 0.494 | 0.491 | 0.689 | 0.818 | 0.662 | 0.686 | 0.579
HCC-78 | 0.818 | 0.837 | 0.941 | 0.727 | 0.616 | 0.851 | 0.784 | 0.731 | 0.779 | 0.51 | 0.352 | 0.349 | 0.406 | 0.356 | 0.326 | 0.547 | 0.499 | 0.518 | 0.54 | 0.443
HCC-366 | 0.422 | 0.384 | 0.377 | 0.404 | 0.216 | – | 0.778 | 1.02 | 1.71 | 0.412 | 1.17 | 1.2 | 1.04 | 1.12 | 0.252 | – | 0.645 | 0.594 | 0.946 | 0.265
HCC-827 | 0.483 | 0.503 | 0.501 | 0.62 | 0.53 | 0.198 | 0.189 | 0.201 | 0.196 | 0.188 | 0.761 | 0.776 | 0.842 | 0.833 | 0.62 | 0.961 | 0.969 | 0.927 | 0.996 | 0.926
HOP-62 | 0.34 | 0.365 | 0.37 | 0.422 | 0.225 | 0.785 | 1.03 | 1.2 | 0.862 | 0.482 | 0.92 | 0.771 | 0.837 | 0.824 | 0.488 | 1.24 | 0.948 | 1 | 1.06 | 0.49
IA-LM | – | – | – | – | – | – | 0.585 | 0.789 | 0.853 | 0.405 | – | – | – | – | – | 0.538 | 0.518 | 0.822 | 0.427 | 0.411
LC-2-ad | 0.943 | 0.98 | 0.938 | 0.95 | 0.606 | 1.01 | 1.08 | 0.88 | 1.2 | 0.861 | 0.876 | 0.994 | 0.87 | 0.913 | 0.663 | 0.828 | 0.927 | 0.885 | 0.893 | 0.663
LCLC-103H | 0.672 | 0.645 | 0.68 | 0.743 | 0.549 | – | – | – | – | – | 0.567 | 0.605 | 0.401 | 0.462 | 0.411 | 1.03 | 1.04 | 0.973 | 0.924 | 0.858
NCI-H441 | 0.423 | 0.404 | 0.445 | 0.541 | 0.372 | – | – | – | – | – | 0.505 | 0.582 | 0.576 | 0.754 | 0.416 | – | 0.541 | 0.777 | 0.654 | 0.355
NCI-H522 | 0.758 | 0.74 | 0.7 | 0.758 | 0.778 | – | – | – | – | – | 0.857 | 0.804 | 0.766 | 0.633 | 0.811 | – | – | – | – | –
NCI-H1299 | – | – | – | – | – | 1.04 | 0.88 | 0.97 | 1.03 | 0.767 | – | – | – | – | – | 0.901 | 0.98 | 1.09 | 0.932 | 0.607
NCI-H1648 | 0.437 | 0.378 | 0.427 | 0.465 | 0.417 | – | – | – | – | – | 0.229 | – | – | 0.209 | 0.265 | – | – | – | – | –
NCI-H1650 | 0.513 | 0.532 | 0.483 | 0.722 | 0.412 | 0.685 | 0.891 | 0.709 | 0.925 | 0.579 | 0.539 | 0.736 | 0.583 | 0.561 | 0.353 | – | – | – | – | –
NCI-H1703 | – | – | – | – | – | 1.57 | 0.717 | 1.23 | 1.69 | 0.62 | – | – | – | – | – | 1.14 | 0.819 | 0.585 | 0.888 | 0.482
NCI-H2170 | 1.21 | 0.894 | 0.964 | 0.792 | 0.637 | 0.274 | 0.268 | 0.276 | 0.278 | 0.274 | 0.774 | 0.673 | 0.734 | 0.726 | 0.604 | – | – | – | – | –
NCI-H2342 | 0.667 | 0.82 | 0.791 | 0.886 | 0.769 | – | – | – | – | – | 0.567 | 0.617 | 0.636 | 0.602 | 0.622 | – | – | – | – | –
